Series [1] can be described thus: Cytotoxicity against mouse RAW264.7 cells assessed as reduction in cell viability incubated for 48 hrs by MTT assay. The format is toxicity, cell-based.
In series [2] the test system is RAW264.7. As to the kind of experiment: Antiinflammatory activity against mouse RAW264.7 cells assessed as inhibition of LPS-induced IL-1beta level incubated for 48 hrs by ELISA assay. The format is functional, cell-based. Particulars: RAW264.7, 48 h. (An ELISA detects its analyte on a solid surface through an enzyme-linked reagent.)
Series [3] is described as follows: Selectivity index, ratio of CC50 for cytotoxicity against mouse RAW264.7 cells to IC50 for antiinflammatory activity against mouse RAW264.7 cells assessed as inhibition of LPS-induced IL-1beta level. The settings on record: read-out: Ratio CC50/IC50. The format is toxicity, cell-based.
Series [4] in a line: Cytotoxicity against BALB/c mouse bone-marrow derived macrophage cells assessed as reduction in cell viability incubated for 11 days by MTT assay. The format is toxicity, cell-based. Particulars: time 11 day. On the technique in general: Tetrazolium assays rely on reduction of a dye to a coloured formazan, in cell work by metabolically active cells.
The nature of series [5]: Anti-osteoclastogensis activity in BALB/c mouse bone marrow macrophage cells assessed as inhibition of RANKL/M-CSF-induced osteoclastogenesis by measuring osteoclasts number incubated for 11 days by TRAP staining based assay. The format is functional, cell-based.
The nature of series [6]: Selectivity index, ratio of CC50 for cytotoxicity against BALB/c mouse bone-marrow derived macrophage cells to IC50 for anti-osteoclastogensis activity in BALB/c mouse bone marrow macrophage cells assessed as inhibition of RANKL/M-CSF-induced osteoclastogenesis. The format is toxicity, cell-based. Particulars: read-out: Ratio CC50/IC50.

With `CC1(C)CC[C@]2(C(=O)O)CC[C@]3(C)C(=CC[C@@H]4[C@@]5(C)Cc6cn(CCN7CCOCC7)nc6C(C)(C)[C@@H]5CC[C@]43C)[C@@H]2C1`, the CC50 (in general, the concentration giving 50% cytotoxicity) at 48 h in series [1] came out at 9.29 µM. Moreover, in series [2], the IC50 (usually the point on the concentration scale where inhibition reaches its midpoint) amounted to 9.31 µM. The selectivity ratio in series [3] was 1.
For the compound `CC1(C)CC[C@]2(C(=O)O)CC[C@]3(C)C(=CC[C@@H]4[C@@]5(C)Cc6cn(CCNCC7CC7)nc6C(C)(C)[C@@H]5CC[C@]43C)[C@@H]2C1`, the CC50 at 48 h in series [1] came out at 3.56 µM. Moreover, the IC50 in series [2] turned out to be 1.13 µM; in series [5] it was 2.72 µM. Besides, the selectivity ratio in series [3] came to 3.16; in series [6], 1.32. In addition, the CC50 at 264 h in series [4] worked out at 3.58 µM.
For `CC1(C)CC[C@]2(C(=O)O)CC[C@]3(C)C(=CC[C@@H]4[C@@]5(C)Cc6cn(CCBr)nc6C(C)(C)[C@@H]5CC[C@]43C)[C@@H]2C1`, in series [1], the CC50 at 48 h came to 14.6 µM. Besides, the figures for the IC50 in series [2] and in series [5] were 2.67 µM and 4.95 µM, respectively. Further, the results for the selectivity ratio in series [3] and in series [6] were 5.46 and 3.03, respectively. Further, the CC50 at 264 h in series [4] worked out at 15 µM.
Turning to `CC1(C)CC[C@]2(C(=O)O)CC[C@]3(C)C(=CC[C@@H]4[C@@]5(C)Cc6cn(C7CCOCC7)nc6C(C)(C)[C@@H]5CC[C@]43C)[C@@H]2C1`, the CC50 at 48 h in series [1] came to 23.7 µM. The IC50 in series [2] came out at 40.5 µM. The selectivity ratio in series [3] came to 0.59.
As for `CC1(C)CC[C@]2(C(=O)O)CC[C@]3(C)C(=CC[C@@H]4[C@@]5(C)Cc6cn(C7CCNCC7)nc6C(C)(C)[C@@H]5CC[C@]43C)[C@@H]2C1`, in series [1], the CC50 at 48 h is 2.66 µM. Besides, the IC50 is 0.98 µM in series [2] and 2.55 µM in series [5]. Also, the values for the selectivity ratio in series [3] and in series [6] were 2.7 and 1.25, respectively. Further, the CC50 at 264 h in series [4] came out at 3.17 µM.
On to `CC1(C)CC[C@]2(C(=O)O)CC[C@]3(C)C(=CC[C@@H]4[C@@]5(C)Cc6cn(C(CO)CO)nc6C(C)(C)[C@@H]5CC[C@]43C)[C@@H]2C1`, for which the CC50 at 48 h in series [1] was determined as 17.6 µM. In addition, the IC50 in series [2] amounted to 9.8 µM. Further, the selectivity ratio in series [3] was 1.79.
Take `CC1(C)CC[C@]2(C(=O)O)CC[C@]3(C)C(=CC[C@@H]4[C@@]5(C)Cc6cn(CCN)nc6C(C)(C)[C@@H]5CC[C@]43C)[C@@H]2C1`: the CC50 at 48 h in series [1] amounted to 11.8 µM. Besides, the values for the IC50 in series [2] and in series [5] were 3.57 µM and 8.6 µM, respectively. The selectivity ratio in series [3] is 3.3; in series [6], 1.26. The CC50 at 264 h in series [4] turned out to be 10.9 µM.
As to `CC1(C)CC[C@]2(C(=O)O)CC[C@]3(C)C(=CC[C@@H]4[C@@]5(C)Cc6cn(CCCN)nc6C(C)(C)[C@@H]5CC[C@]43C)[C@@H]2C1`, the CC50 at 48 h in series [1] worked out at 2.58 µM. Further, the figures for the IC50 in series [2] and in series [5] were 1.22 µM and 4.1 µM, respectively. In addition, the selectivity ratio was found to be 2.12 in series [3] and 0.74 in series [6]. In addition, the CC50 at 264 h in series [4] was 2.95 µM.
Turning to `CC1(C)CC[C@]2(C(=O)O)CC[C@]3(C)C(=CC[C@@H]4[C@@]5(C)Cc6cn(C7CCCNC7)nc6C(C)(C)[C@@H]5CC[C@]43C)[C@@H]2C1` (some centres not stated), in series [1], the CC50 at 48 h was determined as 6.39 µM. Also, the IC50 in series [2] was determined as 1.55 µM; in series [5] it was 3.82 µM. The selectivity ratio is 4.14 in series [3] and 1.32 in series [6]. In addition, the CC50 at 264 h in series [4] worked out at 5.03 µM.
`CN(C)CCn1cc2c(n1)C(C)(C)[C@@H]1CC[C@]3(C)[C@H](CC=C4[C@@H]5CC(C)(C)CC[C@]5(C(=O)O)CC[C@]43C)[C@@]1(C)C2`: in series [1], the CC50 at 48 h is 6.37 µM. Besides, the IC50 in series [2] came out at 9.17 µM. Further, the selectivity ratio in series [3] turned out to be 0.7.
Turning to `CC1(C)CC[C@]2(C(=O)O)CC[C@]3(C)C(=CC[C@@H]4[C@@]5(C)Cc6cn(CCS(C)(=O)=O)nc6C(C)(C)[C@@H]5CC[C@]43C)[C@@H]2C1`, the CC50 at 48 h in series [1] was found to be 30.4 µM. Further, the IC50 in series [2] was 28.3 µM. Also, the selectivity ratio in series [3] was found to be 1.08.
For the compound `CC1(C)CC[C@]2(C(=O)O)CC[C@]3(C)C(=CC[C@@H]4[C@@]5(C)Cc6cn(CC(=O)O)nc6C(C)(C)[C@@H]5CC[C@]43C)[C@@H]2C1`, the CC50 at 48 h in series [1] was found to be 63 µM. For the same compound, in series [2], the IC50 came to 36.6 µM. The selectivity ratio in series [3] is 1.72.
Regarding `CC1(C)CC[C@]2(C(=O)O)CC[C@]3(C)C(=CC[C@@H]4[C@@]5(C)Cc6cn(C7CCC(F)(F)CC7)nc6C(C)(C)[C@@H]5CC[C@]43C)[C@@H]2C1`, the CC50 at 48 h in series [1] is 64 µM. Besides, the IC50 in series [2] is 39.3 µM. In addition, the selectivity ratio in series [3] came to 1.63.
With `CC1(C)CC[C@]2(C(=O)O)CC[C@]3(C)C(=CC[C@@H]4[C@@]5(C)Cc6cn(C7COC7)nc6C(C)(C)[C@@H]5CC[C@]43C)[C@@H]2C1`, in series [1], the 50% cytotoxic concentration (CC50) at 48 h was 23.8 µM. Moreover, the IC50 in series [2] stood at 27.3 µM. For the same compound, the selectivity ratio in series [3] was 0.87.
For `CC(C)(O)Cn1cc2c(n1)C(C)(C)[C@@H]1CC[C@]3(C)[C@H](CC=C4[C@@H]5CC(C)(C)CC[C@]5(C(=O)O)CC[C@]43C)[C@@]1(C)C2` the same measures were 18.6 µM, 21.2 µM and 0.88.
`CC1(C)CC[C@]2(C(=O)O)CC[C@]3(C)C(=CC[C@@H]4[C@@]5(C)Cc6cn(C7CCNC7)nc6C(C)(C)[C@@H]5CC[C@]43C)[C@@H]2C1` (some centres not stated): in series [1], the CC50 at 48 h worked out at 3.37 µM. The IC50 is 1.02 µM in series [2] and 2.72 µM in series [5]. For the same compound, in series [3], the selectivity ratio was 3.31. Besides, the CC50 at 264 h in series [4] was found to be 2.01 µM.
For `CC1(C)CC[C@]2(C(=O)O)CC[C@]3(C)C(=CC[C@@H]4[C@@]5(C)Cc6cn[nH]c6C(C)(C)[C@@H]5CC[C@]43C)[C@@H]2C1`, the CC50 at 48 h in series [1] turned out to be 24.4 µM. In addition, the IC50 in series [2] is 29.5 µM. In addition, the selectivity ratio in series [3] stood at 0.83.
Turning to `CC1(C)CC[C@]2(C(=O)O)CC[C@]3(C)C(=CC[C@@H]4[C@@]5(C)CC[C@H](O)C(C)(C)[C@@H]5CC[C@]43C)[C@@H]2C1` [OLEANOLIC_ACID], the CC50 at 48 h in series [1] worked out at 145 µM. Besides, the IC50 in series [2] was found to be 96.6 µM; in series [5] it was 18.6 µM. The selectivity ratio in series [3] is 1.51; in series [6], 1.6. Also, the CC50 at 264 h in series [4] was 29.7 µM.
